From patent publication US12723063B2, “GIPR-agonist compounds” (Eli Lilly and Company, priority 2019, dated 2026)
*1 amine or outer side, *2 acyl side, *3 side chain or, on linkers, in order; H or OH if unused. Where a SMILES comes first, the peptide text is derived from it. Side-chain parts run from the residue outwards. [ ]: non-standard residue; d: D form. The star is where a group is joined. C20 diacid = O=C(O)CCCCCCCCCCCCCCCCCCC(=O)*; γGlu = O=C(O)[C@H](CCC(=O)[*:2])N[*:1]; 4Pal = N[C@@H](Cc1ccncc1)C(=O)O; αMeL = CC(C)C[C@](C)(N)C(=O)O; Orn = NCCC[C@H](N)C(=O)O; AEEA = NCCOCCOCC(=O)O; Aib = CC(C)(N)C(=O)O

Tests used:
[1] = target: T1, human glucagon receptor (GcgR) (Homo sapiens, UniProt P47871); assay: cAMP functional assay (HTRF) in HEK293 cells in presence of 0.1% casein; assay type: cell-based; conditions: HEK293 cells expressing human GcgR, geometric mean, read-out: hGcgR cAMP Rel EC50 nM (SEM, n)
T1 construct: expressed in transfected cells; host or cells: HEK293

[2] = target: T2, human glucose-dependent insulinotropic peptide receptor (GIPR) (Homo sapiens, UniProt P48546); assay: as above; assay type: cell-based; conditions: HEK293 cells expressing human GIPR, geometric mean, read-out: hGIPR cAMP Rel EC50 nM (SEM, n)
T2 construct: expressed in transfected cells; host or cells: HEK293
T2 sequence (P48546 22-466): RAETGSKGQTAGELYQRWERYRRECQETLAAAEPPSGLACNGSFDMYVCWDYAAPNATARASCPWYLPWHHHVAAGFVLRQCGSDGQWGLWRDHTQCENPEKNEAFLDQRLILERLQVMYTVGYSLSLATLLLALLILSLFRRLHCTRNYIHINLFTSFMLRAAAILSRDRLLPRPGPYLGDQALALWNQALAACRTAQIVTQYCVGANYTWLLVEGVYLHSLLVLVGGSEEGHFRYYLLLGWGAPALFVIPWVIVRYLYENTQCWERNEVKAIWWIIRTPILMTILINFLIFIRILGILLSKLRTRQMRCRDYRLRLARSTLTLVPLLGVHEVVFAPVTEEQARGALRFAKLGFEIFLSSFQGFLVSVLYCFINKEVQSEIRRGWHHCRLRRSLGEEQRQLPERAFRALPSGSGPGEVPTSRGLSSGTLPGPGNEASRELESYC

T1 sequence (P47871 26-477): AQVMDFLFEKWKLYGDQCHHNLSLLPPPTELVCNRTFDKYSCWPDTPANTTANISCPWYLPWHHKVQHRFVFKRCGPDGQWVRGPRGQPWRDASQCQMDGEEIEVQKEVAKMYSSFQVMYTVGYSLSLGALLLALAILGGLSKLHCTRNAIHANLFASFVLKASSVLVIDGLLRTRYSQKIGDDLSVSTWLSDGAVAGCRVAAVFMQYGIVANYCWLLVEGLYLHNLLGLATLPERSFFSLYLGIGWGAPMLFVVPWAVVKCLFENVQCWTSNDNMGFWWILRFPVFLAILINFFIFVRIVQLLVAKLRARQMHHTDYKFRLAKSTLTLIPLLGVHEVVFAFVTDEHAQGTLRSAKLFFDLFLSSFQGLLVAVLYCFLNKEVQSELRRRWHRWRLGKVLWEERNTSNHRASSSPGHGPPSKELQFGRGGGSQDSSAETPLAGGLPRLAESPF

Row | Compound | EC50 [1] [nM] | EC50 [2] [nM]
1 | CC[C@H](C)[C@H](NC(=O)[C@H](Cc1ccccc1)NC(=O)[C@@H](NC(=O)CNC(=O)[C@H](CCC(=O)O)NC(=O)C(C)(C)NC(=O)[C@@H](N)Cc1ccc(O)cc1)[C@@H](C)O)C(=O)N[C@@H](CO)C(=O)N[C@@H](CC(=O)O)C(=O)N[C@@H](Cc1ccc(O)cc1)C(=O)N[C@@H](CO)C(=O)N[C@H](C(=O)N[C@@](C)(CC(C)C)C(=O)N[C@@H](CC(C)C)C(=O)N[C@@H](CC(=O)O)C(=O)N[C@@H](CCCCN)C(=O)N[C@@H](CCCCNC(=O)COCCOCCNC(=O)COCCOCCNC(=O)CC[C@H](NC(=O)CCCCCCCCCCCCCCCCCCC(=O)O)C(=O)O)C(=O)N[C@@H](Cc1c[nH]cn1)C(=O)N[C@@H](CCC(N)=O)C(=O)NC(C)(C)C(=O)N[C@@H](CC(=O)O)C(=O)N[C@@H](Cc1ccccc1)C(=O)N[C@H](C(=O)N[C@@H](CCC(=O)O)C(=O)N[C@@H](Cc1ccncc1)C(=O)N[C@@H](CC(C)C)C(=O)N[C@@H](CC(C)C)C(=O)N[C@@H](C)C(=O)N[C@@H](CCC(N)=O)C(=O)NCC(=O)N1CCC[C@H]1C(=O)N[C@@H](CO)C(=O)N[C@@H](CO)C(=O)NCC(=O)N[C@@H](C)C(=O)N1CCC[C@H]1C(=O)N1CCC[C@H]1C(=O)N1CCC[C@H]1C(=O)N[C@@H](CO)C(N)=O)C(C)C)[C@@H](C)CC [Example 79] (H-Y[Aib]EGTFISDYSI[αMeL]LDKK([AEEA-AEEA-γGlu-C20 diacid])HQ[Aib]DFVE[4Pal]LLAQGPSSGAPPPS-NH2) | > 5000 | 0.0316
2 | CC[C@H](C)[C@H](NC(=O)[C@H](Cc1ccccc1)NC(=O)[C@@H](NC(=O)CNC(=O)[C@H](CCC(=O)O)NC(=O)C(C)(C)NC(=O)[C@@H](N)Cc1ccc(O)cc1)[C@@H](C)O)C(=O)N[C@@H](CO)C(=O)N[C@@H](CC(=O)O)C(=O)N[C@@H](Cc1ccc(O)cc1)C(=O)N[C@@H](CO)C(=O)N[C@H](C(=O)N[C@@](C)(CC(C)C)C(=O)N[C@@H](CC(C)C)C(=O)N[C@@H](CC(=O)O)C(=O)N[C@@H](CCCN)C(=O)N[C@@H](CCCCNC(=O)COCCOCCNC(=O)COCCOCCNC(=O)CC[C@H](NC(=O)CCCCCCCCCCCCCCCCCCC(=O)O)C(=O)O)C(=O)N[C@@H](Cc1c[nH]cn1)C(=O)N[C@@H](CCC(N)=O)C(=O)NC(C)(C)C(=O)N[C@@H](CC(=O)O)C(=O)N[C@@H](Cc1ccccc1)C(=O)N[C@H](C(=O)N[C@@H](CCC(=O)O)C(=O)N[C@@H](Cc1ccncc1)C(=O)N[C@@H](CC(C)C)C(=O)N[C@@H](CC(C)C)C(=O)N[C@@H](CCC(=O)O)C(=O)N[C@H](C(=O)NCC(=O)N1CCC[C@H]1C(=O)N[C@@H](CO)C(=O)N[C@@H](CO)C(=O)NCC(=O)N[C@@H](C)C(=O)N1CCC[C@H]1C(=O)N1CCC[C@H]1C(=O)N1CCC[C@H]1C(=O)N[C@@H](CO)C(N)=O)[C@@H](C)O)C(C)C)[C@@H](C)CC [Example 80] (H-Y[Aib]EGTFISDYSI[αMeL]LD[Orn]K([AEEA-AEEA-γGlu-C20 diacid])HQ[Aib]DFVE[4Pal]LLETGPSSGAPPPS-NH2) | > 5000 | 0.0777
3 | CC[C@H](C)[C@H](NC(=O)[C@H](Cc1ccccc1)NC(=O)[C@@H](NC(=O)CNC(=O)[C@H](CCC(=O)O)NC(=O)C(C)(C)NC(=O)[C@@H](N)Cc1ccc(O)cc1)[C@@H](C)O)C(=O)N[C@@H](CO)C(=O)N[C@@H](CC(=O)O)C(=O)N[C@@H](Cc1ccc(O)cc1)C(=O)N[C@@H](CO)C(=O)N[C@H](C(=O)N[C@@](C)(CC(C)C)C(=O)N[C@@H](CC(C)C)C(=O)N[C@@H](CC(=O)O)C(=O)N[C@@H](CCCN)C(=O)N[C@@H](CCCCNC(=O)COCCOCCNC(=O)COCCOCCNC(=O)CC[C@H](NC(=O)CCCCCCCCCCCCCCCCCCC(=O)O)C(=O)O)C(=O)N[C@@H](Cc1c[nH]cn1)C(=O)N[C@@H](CCC(N)=O)C(=O)NC(C)(C)C(=O)N[C@@H](CC(=O)O)C(=O)N[C@@H](Cc1ccccc1)C(=O)N[C@H](C(=O)N[C@@H](CCC(=O)O)C(=O)N[C@@H](Cc1ccncc1)C(=O)N[C@@H](CC(C)C)C(=O)N[C@@H](CC(C)C)C(=O)N[C@@H](CCC(=O)O)C(=O)N[C@@H](CCC(N)=O)C(=O)NCC(=O)N1CCC[C@H]1C(=O)N[C@@H](CO)C(=O)N[C@@H](CO)C(=O)NCC(=O)N[C@@H](C)C(=O)N1CCC[C@H]1C(=O)N1CCC[C@H]1C(=O)N1CCC[C@H]1C(=O)N[C@@H](CO)C(N)=O)C(C)C)[C@@H](C)CC [Example 81] (H-Y[Aib]EGTFISDYSI[αMeL]LD[Orn]K([AEEA-AEEA-γGlu-C20 diacid])HQ[Aib]DFVE[4Pal]LLEQGPSSGAPPPS-NH2) | > 5000 | 0.0282
4 | CC[C@H](C)[C@H](NC(=O)[C@H](Cc1ccccc1)NC(=O)[C@@H](NC(=O)CNC(=O)[C@H](CCC(=O)O)NC(=O)C(C)(C)NC(=O)[C@@H](N)Cc1ccc(O)cc1)[C@@H](C)O)C(=O)N[C@@H](CO)C(=O)N[C@@H](CC(=O)O)C(=O)N[C@@H](Cc1ccc(O)cc1)C(=O)N[C@@H](CO)C(=O)N[C@H](C(=O)N[C@@](C)(CC(C)C)C(=O)N[C@@H](CC(C)C)C(=O)N[C@@H](CC(=O)O)C(=O)N[C@@H](CCCN)C(=O)N[C@@H](CCCCNC(=O)COCCOCCNC(=O)COCCOCCNC(=O)CC[C@H](NC(=O)CCCCCCCCCCCCCCCCCCC(=O)O)C(=O)O)C(=O)N[C@@H](Cc1c[nH]cn1)C(=O)N[C@@H](CCC(N)=O)C(=O)NC(C)(C)C(=O)N[C@@H](CC(=O)O)C(=O)N[C@@H](Cc1ccccc1)C(=O)N[C@H](C(=O)N[C@@H](CCC(=O)O)C(=O)N[C@@H](Cc1ccncc1)C(=O)N[C@@H](CC(C)C)C(=O)N[C@@H](CC(C)C)C(=O)N[C@@H](CCC(=O)O)C(=O)NCC(=O)NCC(=O)N1CCC[C@H]1C(=O)N[C@@H](CO)C(=O)N[C@@H](CO)C(=O)NCC(=O)N[C@@H](C)C(=O)N1CCC[C@H]1C(=O)N1CCC[C@H]1C(=O)N1CCC[C@H]1C(=O)N[C@@H](CO)C(N)=O)C(C)C)[C@@H](C)CC [Example 82] (H-Y[Aib]EGTFISDYSI[αMeL]LD[Orn]K([AEEA-AEEA-γGlu-C20 diacid])HQ[Aib]DFVE[4Pal]LLEGGPSSGAPPPS-NH2) | 3790 | 0.0391
5 | CC[C@H](C)[C@H](NC(=O)[C@H](Cc1ccccc1)NC(=O)[C@@H](NC(=O)CNC(=O)[C@H](CCC(=O)O)NC(=O)C(C)(C)NC(=O)[C@@H](N)Cc1ccc(O)cc1)[C@@H](C)O)C(=O)N[C@@H](CO)C(=O)N[C@@H](CC(=O)O)C(=O)N[C@@H](Cc1ccc(O)cc1)C(=O)N[C@@H](CO)C(=O)N[C@H](C(=O)N[C@@](C)(CC(C)C)C(=O)N[C@@H](CC(C)C)C(=O)N[C@@H](CC(=O)O)C(=O)N[C@@H](CCC(=O)O)C(=O)N[C@@H](CCCCNC(=O)COCCOCCNC(=O)COCCOCCNC(=O)CC[C@H](NC(=O)CCCCCCCCCCCCCCCCCCC(=O)O)C(=O)O)C(=O)N[C@@H](Cc1c[nH]cn1)C(=O)N[C@@H](CCC(N)=O)C(=O)NC(C)(C)C(=O)N[C@@H](CC(=O)O)C(=O)N[C@@H](Cc1ccccc1)C(=O)N[C@H](C(=O)N[C@@H](CCC(=O)O)C(=O)N[C@@H](Cc1ccncc1)C(=O)N[C@@H](CC(C)C)C(=O)N[C@@H](CC(C)C)C(=O)N[C@@H](C)C(=O)N[C@H](C(=O)NCC(=O)N1CCC[C@H]1C(=O)N[C@@H](CO)C(=O)N[C@@H](CO)C(=O)NCC(=O)N[C@@H](C)C(=O)N1CCC[C@H]1C(=O)N1CCC[C@H]1C(=O)N1CCC[C@H]1C(=O)N[C@@H](CO)C(N)=O)[C@@H](C)O)C(C)C)[C@@H](C)CC [Example 83] (H-Y[Aib]EGTFISDYSI[αMeL]LDEK([AEEA-AEEA-γGlu-C20 diacid])HQ[Aib]DFVE[4Pal]LLATGPSSGAPPPS-NH2) | > 5000 | 0.0432
6 | CC[C@H](C)[C@H](NC(=O)[C@H](Cc1ccccc1)NC(=O)[C@@H](NC(=O)CNC(=O)[C@H](CCC(=O)O)NC(=O)C(C)(C)NC(=O)[C@@H](N)Cc1ccc(O)cc1)[C@@H](C)O)C(=O)N[C@@H](CO)C(=O)N[C@@H](CC(=O)O)C(=O)N[C@@H](Cc1ccc(O)cc1)C(=O)N[C@@H](CO)C(=O)N[C@H](C(=O)N[C@@](C)(CC(C)C)C(=O)N[C@@H](CC(C)C)C(=O)N[C@@H](CC(=O)O)C(=O)N[C@@H](CCC(=O)O)C(=O)N[C@@H](CCCCNC(=O)COCCOCCNC(=O)COCCOCCNC(=O)CC[C@H](NC(=O)CCCCCCCCCCCCCCCCCCC(=O)O)C(=O)O)C(=O)N[C@@H](Cc1c[nH]cn1)C(=O)N[C@@H](CCC(N)=O)C(=O)NC(C)(C)C(=O)N[C@@H](CC(=O)O)C(=O)N[C@@H](Cc1ccccc1)C(=O)N[C@H](C(=O)N[C@@H](CCC(=O)O)C(=O)N[C@@H](Cc1ccncc1)C(=O)N[C@@H](CC(C)C)C(=O)N[C@@H](CC(C)C)C(=O)N[C@@H](C)C(=O)N[C@@H](CCC(N)=O)C(=O)NCC(=O)N1CCC[C@H]1C(=O)N[C@@H](CO)C(=O)N[C@@H](CO)C(=O)NCC(=O)N[C@@H](C)C(=O)N1CCC[C@H]1C(=O)N1CCC[C@H]1C(=O)N1CCC[C@H]1C(=O)N[C@@H](CO)C(N)=O)C(C)C)[C@@H](C)CC [Example 84] (H-Y[Aib]EGTFISDYSI[αMeL]LDEK([AEEA-AEEA-γGlu-C20 diacid])HQ[Aib]DFVE[4Pal]LLAQGPSSGAPPPS-NH2) | > 5000 | 0.034
